Source: PubChem BioAssay (NCI)
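Each compound was tested at five concentrations against cells in 96-well plates for 48 hours. Abbreviation: GI50, concentration required for 50% inhibition of growth. Definition used: TGI = concentration required for complete inhibition of growth.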

Experiments:
Assay in all cases: NCI-60 cell line screen, 48 h
[1] = test system: SF-295 CNS
[2] = test system: SK-MEL-5 melanoma
[3] = test system: SN12C renal
[4] = test system: MDA-MB-231 breast
[5] = test system: OVCAR-4 ovarian
[6] = test system: KM12 colon
[7] = test system: ACHN renal
[8] = test system: MDA-MB-435
[9] = test system: SK-MEL-28 melanoma
[10] = test system: HL-60(TB) leukemia

Row | Compound | GI50 [1] [µM] | TGI [1] [µM] | GI50 [2] [µM] | TGI [2] [µM] | GI50 [3] [µM] | TGI [3] [µM] | GI50 [4] [µM] | TGI [4] [µM] | GI50 [5] [µM] | TGI [5] [µM] | GI50 [6] [µM] | TGI [6] [µM] | GI50 [7] [µM] | TGI [7] [µM] | GI50 [8] [µM] | TGI [8] [µM] | GI50 [9] [µM] | TGI [9] [µM] | GI50 [10] [µM] | TGI [10] [µM]
1 | Cc1ccc(C(=O)NC2CCC2)cc1-c1ccc(C(=O)NCC2CC2)cc1 | > 25 | > 25 | > 21.5 | > 25 | > 25 | > 25 | > 25 | > 25 | > 25 | > 25 | > 25 | > 25 | > 25 | > 25 | > 25 | > 25 | > 25 | > 25 | > 25 | > 25
2 | O=C1NOC(c2ccc(O)cc2)(c2ccc(O)cc2)c2ccccc21 | > 100 | > 100 | > 100 | > 100 | > 100 | > 100 | > 100 | > 100 | > 100 | > 100 | > 100 | > 100 | > 100 | > 100 | > 100 | > 100 | > 100 | > 100 | > 100 | > 100
3 | NCCN.O=C([O-])CN1CCOCC1.[OH-].[Pt+4] | > 100 | > 100 | > 100 | > 100 | > 100 | > 100 | > 100 | > 100 | > 100 | > 100 | > 100 | > 100 | > 100 | > 100 | > 100 | > 100 | > 100 | > 100 | 15.8 | > 100
4 | O=[N+]([O-])c1ccc(N=Nc2ccc(O)c3ccccc23)cc1 | 9.89 | > 100 | 2.55 | 13.6 | 3.55 | > 100 | 1.43 | 20.8 | 2.83 | > 100 | 3.21 | > 100 | 3.13 | > 100 | 5.31 | 19.1 | 6.59 | > 100 | 5.39 | 21
5 | COc1ccccc1CNCCCN1C(=O)c2ccc3c4c(ccc(c24)C1=O)C(=O)N(CCCN)C3=O | 1.31 | 2.81 | 0.262 | 0.899 | 1.29 | 2.76 | 1.67 | 10.9 | 0.23 | 0.843 | 1.69 | 3.25 | 1.58 | 4.51 | 0.196 | 0.413 | 1.74 | 3.75 | 0.826 | 2.54
6 | CN(C)CC1CCC2=C(C1=O)C(c1ccc(Cl)c(Cl)c1)C1=C(CCC(CN(C)C)C1=O)O2 (stereo not given) | 16.9 | 30.5 | 15.2 | 29 | 14 | 30.2 | 15.4 | 28.7 | 15.4 | 29.9 | 2.58 | 8.85 | 14.3 | 27.3 | 4.81 | 17.5 | 17.6 | 34.6 | 0.773 | 3.53
